Measurements: patent US12138254B2, “Chronic nightly dosing of lasmiditan for migraine prevention” (Eli Lilly and Company, priority 2018, dated 2024)
Like-named read-outs stand apart in the source and are kept apart here.

Tests used:
[1] = test system: dural plasma protein extravasation; assay: Trigeminal stimulation-induced dural plasma protein extravasation (PPE) in rats; format: in vivo, Sprague-Dawley rats
From the text: Migraine is a painful condition thought to involve neurogenic inflammation of the dural membrane and activation of the trigeminal nervous system. The 5-HT1F receptor is widely expressed in the CNS and peripheral nerves, including the trigeminal ganglia, dorsal root ganglia and trigeminal nucleus caudalis. Plasma protein extravasation (PPE), one component of neurogenic inflammation, can be induced in the dura of rats by electrically stimulating the trigeminal ganglion. Considering the role of the trigeminal nerve in the physiology of migraine, this study is useful to characterize the ability of lasmiditan-hemisuccinate to block plasma protein extravasation in the dura of rats following electrical stimulation of the trigeminal ganglion.
To investigate the potential of lasmiditan to modify the dysfunction in the target tissue, the duration of effect following a single oral dose of lasmiditan-hemisuccinate was also determined. Electrical stimulation of the trigeminal ganglion of rats and guinea pigs can be used to induce neurogenic inflammation in the meninges (dura). Briefly, unilateral electrical stimulation of either the left or right trigeminal ganglion using electrodes implanted stereotaxically is used to induce ipsilateral neurogenic inflammation and the increased extravasation of plasma proteins.
Lasmiditan-hemisuccinate is dissolved in sterile water. All doses of lasmiditan are reported as free base equivalent doses, accounting for the weight of the salt. Envigo Sprague-Dawley, Sprague-Dawley male rats (250-350 grams, n=4/group) are fasted overnight prior to dosing. The animals are orally gavaged (2 mL/kg dose volume) with test compound or vehicle one hour prior to stimulation time and returned to their cages with only water available. Approximately 50 minutes post-dosing, the rats are anesthetized with Nembutal (65 mg/kg, ip.) and implanted with stainless steel stimulating electrodes (Rhodes Medical Systems, Inc.) to a depth of 9.2 mm. from the dura. The femoral vein is exposed and fluorescein isothiocyanate-labeled bovine serum albumin (FITC-BSA) (20 mg/kg, iv.), is injected into the femoral vein 2 minutes prior to stimulation. The FITC-BSA functions as a marker for protein extravasation. The left trigeminal ganglion is stimulated for 5 minutes at a current intensity of 1.0 mA (5 Hz, 5 msec pulse duration) with a Model S48 Grass Instrument Stimulator with PSIU6 photoelectric isolation unit (Grass-Telefactor). Five minutes following stimulation, a blood sample is collected by cardiac puncture and the rats are sacrificed by exsanguination with 40 ml of saline. One milliliter of blood is collected and placed in a 1.5 ml EDTA coated tube (Fisher Cat. #540734) on ice. Plasma is separated via centrifugation at 10,000 rpm (941 g) for thirty minutes at 4° C. The top of the skull is removed to collect the brain and dural membranes. The brain and plasma samples are frozen at −80° C. until thawed for compound quantification. The membrane samples are removed from both hemispheres, rinsed with water, and spread flat on microscope slides. The slides are dried for 15 minutes on a slide warmer, then the tissues are cover-slipped with a 70% glycerol/water solution. A fluorescence microscope (Zeiss) equipped with a grating monochromator and a spectrophotometer is used to quantify the amount of FITC-BSA dye in each dural sample. The extravasation induced by electrical stimulation of the trigeminal ganglion is an ipsilateral effect (i.e. occurs only on the side of the dura in which the trigeminal ganglion was stimulated). This allows the other (unstimulated) half of the dura to be used as the control. The ratio of extravasation in the dura from the stimulated side versus the unstimulated side is calculated and reported as the extravasation ratio for each animal. The mean extravasation ratio and standard error of the mean (SEM) are calculated for each treatment group. Controls yield a ratio of approximately 1.8. […]

patients with migraine = settings: cited from earlier work; for pain freedom (primary) and MBS freedom (key secondary) at 2 hours vs placebo: Phase 3 trials, all doses (50, 100, 200 mg); for proportion of patients headache pain-free / proportion of patients most bothersome symptom (MBS)-free: lasmiditan 200 mg, 2 hours post-first dose, p<0.001
[2] = Fraction unbound in plasma and brain (FUplasma, FUbrain)

SMILES: CN1CCC(C(=O)c2cccc(NC(=O)c3c(F)cc(F)cc3F)n2)CC1 [Lasmiditan, 2,4,6-trifluoro-N-[6-(1-methyl-piperidin-4-ylcarbonyl)-pyridin-2-yl]-benzamide]
- inhibition of dural plasma protein extravasation vs vehicle ([1]; 0.1 mg/kg po, 1 hour post-dose): non-efficacious
- inhibition of dural plasma protein extravasation vs vehicle ([1]; single 10 mg/kg po, 24 hours post-dose): equally efficacious
- inhibition of dural plasma protein extravasation vs vehicle ([1]; single 10 mg/kg po, 48 hours post-dose): not at 48 hours
- most frequently reported / most common TEAEs (patients with migraine; Phase 3 studies, b6: ≥2% and greater than placebo after the first dose): dizziness, paresthesia, somnolence, fatigue, and nausea
- severity of TEAEs (patients with migraine; Phase 3 studies): mild or moderate
- pain freedom (primary) and MBS freedom (key secondary) at 2 hours vs placebo (patients with migraine): statistically significant superiority over placebo
- pain freedom (primary) and MBS freedom (key secondary) at 2 hours vs placebo (patients with migraine; listed as lasmiditan): significantly higher rates
- proportion of patients headache pain-free (patients with migraine; SAMURAI, placebo 15.3%): 32.2%
- proportion of patients most bothersome symptom (MBS)-free (patients with migraine; SAMURAI, placebo 29.5%): 40.7%
- proportion of patients headache pain-free (patients with migraine; SPARTAN, placebo 21.3%): 38.8%
- proportion of patients most bothersome symptom (MBS)-free (patients with migraine; SPARTAN, placebo 33.5%): 48.7%
- headache pain-free and MBS-free at 2 hours compared to placebo (patients with migraine; lasmiditan 100 mg, 50 mg dose groups): significance was also noted
- FUbrain ([2]; brain): FUbrain = 0.117,
- FUplasma ([2]; plasma): FUplasma = 0.459,
